The results in this text go back to patent publication US9416111B2, “Substituted diazine and triazine spleen tyrosine kinease (Syk) inhibitors” (Merck Sharp & Dohme Corp., priority 2012, dated 2016).

The structures appear in SMILES notation.

This experiment deals with T1, recombinant human GST-SYK (Homo sapiens, UniProt P43405).
T1 construct: purchased Carna Biosciences 08-176
Put plainly: Homogeneous Time-Resolved Fluorescence (HTRF) assay for the recombinant human Syk enzyme. The format is biochemical. The note with it: GST-hSYK 5 pM, ATP 25 μM, IC50 rated in classes, read-out: rhSYK Activity. As to the method: Homogeneous Time-Resolved Fluorescence (HTRF) Assay for the Recombinant Human Syk Enzyme
A recombinant GST-hSYK fusion protein was used to measure potency of compounds to inhibit human Syk activity. The recombinant human GST-SYK (Carna Biosciences #08-176) (5 pM final concentration) was incubated with various concentrations of the inhibitor diluted in DMSO (0.1% final concentration) for 10 minutes at room temperature in 15 mM Tris-HCl (pH 7.5), 0.01% tween 20, 2 mM DTT in 384 well plate format. To initiate the reaction the biotinylated substrate peptide (250 nM final concentration) that contains the phosphorylation site for Syk was added with magnesium (5 mM final concentration) and ATP (25 μM final concentration). Final volume of the reaction was 10 μL. Phosphorylation of the peptide was allowed to proceed for 45′ at room temperature. To quench the reaction and detect the phosphorylated product, 2 nM of a Europium-anti-phosphotyrosine antibody (Perkin Elmer #AD0161) and 70 nM SA-APC (Perkin-Elmer #CR130-100) were added together in 15 mM Tris pH 7.5, 40 mM EDTA, 0.01% tween 20. Final volume of the quenching solution was 10 μL. The resulting HTRF signal was measured after 30 minutes on an EnVision (Perkin-Elmer) reader using a time-resolved fluorescence protocol.

Turning to `COCC1CN(c2ncc(-c3cc(C)cc(Nc4nccc(C(F)(F)F)n4)c3)cn2)CCO1` (stereo not drawn) [Example 2.25, N-(3-{2-[2-(methoxymethyl)morpholin-4-yl]pyrimidin-5-yl}-5-methylphenyl)-4-(trifluoromethyl)pyrimidin-2-amine], the IC50 lay in the range of 100 to 1000 nM.

With `Cc1cc(Nc2nccc(C(F)(F)F)n2)cc(-c2cnc(NCCS(N)(=O)=O)nc2)c1` [Example 2.26, 2-{[5-(3-methyl-5-{[4-(trifluoromethyl)pyrimidin-2-yl]amino}phenyl)pyrimidin-2-yl]amino}ethanesulfonamide], the IC50 is under 100 nM.

For `Cc1cc(Nc2nccc(C(F)(F)F)n2)cc(-c2cnc(N3CCCC(C)(O)C3)nc2)c1` (stereo not drawn) [Example 2.27, 3-methyl-1-[5-(3-methyl-5-{[4-(trifluoromethyl)pyrimidin-2-yl]amino}phenyl)pyrimidin-2-yl]piperidin-3-ol], the IC50 was under 100 nM.

As to `Cc1cc(Nc2nccc(C(F)(F)F)n2)cc(-c2cnc(N3CCC(C)(O)C3)nc2)c1` (stereo not drawn) [Example 2.28, 3-methyl-1-[5-(3-methyl-5-{[4-(trifluoromethyl)pyrimidin-2-yl]amino}phenyl)pyrimidin-2-yl]pyrrolidin-3-ol], the IC50 was under 100 nM.

On to `Cc1cc(Nc2nccc(C(F)(F)F)n2)cc(-c2cnc(N3CCC(C)(O)CC3)nc2)c1` [Example 2.29, 4-methyl-1-[5-(3-methyl-5-{[4-(trifluoromethyl)pyrimidin-2-yl]amino}phenyl)pyrimidin-2-yl]piperidin-4-ol], for which the IC50 fell in the range of 100 to 1000 nM.

For the compound `Cc1cc(Nc2nccc(C(F)(F)F)n2)cc(-c2cnc(N(C)CCO)nc2)c1` [Example 2.30, 2-{methyl[5-(3-methyl-5-{[4-(trifluoromethyl)pyrimidin-2-yl]amino}phenyl)pyrimidin-2-yl]amino}ethanol], the IC50 is under 100 nM.

For `Cc1cc(Nc2nccc(C(F)(F)F)n2)cc(-c2cnc(N(CCO)CCO)nc2)c1` [Example 2.31, 2,2′-{[5-(3-methyl-5-{[4-(trifluoromethyl)pyrimidin-2-yl]amino}phenyl)pyrimidin-2-yl]imino}diethanol], the IC50 was under 100 nM.

Consider `Cc1cc(Nc2nccc(C(F)(F)F)n2)cc(-c2cnc(N(C)CC(=O)O)nc2)c1` [Example 2.32, N-methyl-N-[5-(3-methyl-5-{[4-(trifluoromethyl)pyrimidin-2-yl]amino}phenyl)pyrimidin-2-yl]glycine], for which the IC50 was under 100 nM.

As to `Cc1cc(Nc2nccc(C(F)(F)F)n2)cc(-c2cnc(NCCc3c[nH]cn3)nc2)c1` [Example 2.33, N-[3-(2-{[2-(1H-imidazol-4-yl)ethyl]amino}pyrimidin-5-yl)-5-methylphenyl]-4-(trifluoromethyl)pyrimidin-2-amine], the IC50 was under 100 nM.

On to `Cc1cc(Nc2nccc(C(F)(F)F)n2)cc(-c2cnc(NCCCO)nc2)c1` [Example 2.34, 3-{[5-(3-methyl-5-{[4-(trifluoromethyl)pyrimidin-2-yl]amino}phenyl)pyrimidin-2-yl]amino}propan-1-ol], for which the IC50 was under 100 nM.

Take `Cc1cc(Nc2nccc(C(F)(F)F)n2)cc(-c2cnc(NCCCCO)nc2)c1` [Example 2.35, 4-{[5-(3-methyl-5-{[4-(trifluoromethyl)pyrimidin-2-yl]amino}phenyl)pyrimidin-2-yl]amino}butan-1-ol]: the IC50 is under 100 nM.

As for `Cc1cc(Nc2nccc(C(F)(F)F)n2)cc(-c2cnc(NC3(CO)CCCC3)nc2)c1` [Example 2.36, (1-{[5-(3-methyl-5-{[4-(trifluoromethyl)pyrimidin-2-yl]amino}phenyl)pyrimidin-2-yl]amino}cyclopentyl)methanol], the IC50 was under 100 nM.

Take `Cc1cc(Nc2nccc(C(F)(F)F)n2)cc(-c2cnc(NCC(N)=O)nc2)c1` [Example 2.37, N~2~-[5-(3-methyl-5-{[4-(trifluoromethyl)pyrimidin-2-yl]amino}phenyl)pyrimidin-2-yl]glycinamide]: the IC50 is under 100 nM.

For `Cc1cc(Nc2nccc(C(F)(F)F)n2)cc(-c2cnc(NCCC(N)=O)nc2)c1` [Example 2.39, N~3~-[5-(3-methyl-5-{[4-(trifluoromethyl)pyrimidin-2-yl]amino}phenyl)pyrimidin-2-yl]-beta-alaninamide], the IC50 is under 100 nM.

With `CC(=O)N1CCN(c2ncc(-c3cc(C)cc(Nc4nccc(C(F)(F)F)n4)c3)cn2)CC1` [Example 2.40, N-{3-[2-(4-acetylpiperazin-1-yl)pyrimidin-5-yl]-5-methylphenyl}-4-(trifluoromethyl)pyrimidin-2-amine], the IC50 was under 100 nM.

As to `Cc1cc(Nc2nccc(C(F)(F)F)n2)cc(-c2cnc(NC3CCCCNC3=O)nc2)c1` (stereo not drawn) [Example 2.42, 3-{[5-(3-methyl-5-{[4-(trifluoromethyl)pyrimidin-2-yl]amino}phenyl)pyrimidin-2-yl]amino}azepan-2-one], the IC50 was under 100 nM.

Take `Cc1cc(Nc2nccc(C(F)(F)F)n2)cc(-c2cnc(N(C)CC(O)CO)nc2)c1` (stereo not drawn) [Example 2.43, 3-{methyl[5-(3-methyl-5-{[4-(trifluoromethyl)pyrimidin-2-yl]amino}phenyl)pyrimidin-2-yl]amino}propane-1,2-diol]: the IC50 was under 100 nM.

`CNC(=O)CNc1ncc(-c2cc(C)cc(Nc3nccc(C(F)(F)F)n3)c2)cn1` [Example 2.44, N-methyl-N~2~-[5-(3-methyl-5-{[4-(trifluoromethyl)pyrimidin-2-yl]amino}phenyl)pyrimidin-2-yl]glycinamide]: the IC50 was under 100 nM.

Turning to `Cc1cc(Nc2nccc(C(F)(F)F)n2)cc(-c2cnc(N(C)CCC3OCCO3)nc2)c1` [Example 2.45, N-[2-(1,3-dioxolan-2-yl)ethyl]-N-methyl-5-(3-methyl-5-{[4-(trifluoromethyl)pyrimidin-2-yl]amino}phenyl)pyrimidin-2-amine], the IC50 was under 100 nM.

As for `Cc1cc(Nc2nccc(C(F)(F)F)n2)cc(-c2cnc(N3CCNC(=O)C3)nc2)c1` [Example 2.46, 4-[5-(3-methyl-5-{[4-(trifluoromethyl)pyrimidin-2-yl]amino}phenyl)pyrimidin-2-yl]piperazin-2-one], the IC50 is under 100 nM.

For the compound `Cc1cc(Nc2nccc(C(F)(F)F)n2)cc(-c2cnc(NCC(C)(C)O)nc2)c1` [Example 2.47, 2-methyl-1-{[5-(3-methyl-5-{[4-(trifluoromethyl)pyrimidin-2-yl]amino}phenyl)pyrimidin-2-yl]amino}propan-2-ol], the IC50 was under 100 nM.

For the compound `Cc1cc(Nc2nccc(C(F)(F)F)n2)cc(-c2cnc(NCCS(C)(=O)=O)nc2)c1` [Example 2.48, N-[3-methyl-5-(2-{[2-(methylsulfonyl)ethyl]amino}pyrimidin-5-yl)phenyl]-4-(trifluoromethyl)pyrimidin-2-amine], the IC50 is under 100 nM.

On to `COCC1CCCCN1c1ncc(-c2cc(C)cc(Nc3nccc(C(F)(F)F)n3)c2)cn1` (stereo not drawn) [Example 2.49, N-(3-{2-[2-(methoxymethyl)piperidin-1-yl]pyrimidin-5-yl}-5-methylphenyl)-4-(trifluoromethyl)pyrimidin-2-amine], for which the IC50 lay within 100 to 1000 nM.

Turning to `Cc1cc(Nc2nccc(C(F)(F)F)n2)cc(-c2cnc(N3CC(O)C3)nc2)c1` [Example 2.50, 1-[5-(3-methyl-5-{[4-(trifluoromethyl)pyrimidin-2-yl]amino}phenyl)pyrimidin-2-yl]azetidin-3-ol], the IC50 is under 100 nM.

On to `CCC1C(=O)NCCN1c1ncc(-c2cc(C)cc(Nc3nccc(C(F)(F)F)n3)c2)cn1` (stereo not drawn) [Example 2.51, 3-ethyl-4-[5-(3-methyl-5-{[4-(trifluoromethyl)pyrimidin-2-yl]amino}phenyl)pyrimidin-2-yl]piperazin-2-one], for which the IC50 is under 100 nM.

Regarding `Cc1cc(Nc2nccc(C(F)(F)F)n2)cc(-c2cnc(NCc3cncn3C)nc2)c1` [Example 2.52, N-[3-methyl-5-(2-{[(1-methyl-1H-imidazol-5-yl)methyl]amino}pyrimidin-5-yl)phenyl]-4-(trifluoromethyl)pyrimidin-2-amine], the IC50 is under 100 nM.

As to `CCCOC1CCCN(c2ncc(-c3cc(C)cc(Nc4nccc(C(F)(F)F)n4)c3)cn2)C1` (stereo not drawn) [Example 2.53, N-{3-methyl-5-[2-(3-propoxypiperidin-1-yl)pyrimidin-5-yl]phenyl}-4-(trifluoromethyl)pyrimidin-2-amine], the IC50 lay within 100 to 1000 nM.

`Cc1cc(Nc2nccc(C(F)(F)F)n2)cc(-c2cnc(N3CCC3C(=O)O)nc2)c1` (stereo not drawn) [Example 2.54, 1-[5-(3-methyl-5-{[4-(trifluoromethyl)pyrimidin-2-yl]amino}phenyl)pyrimidin-2-yl]azetidine-2-carboxylic acid]: the IC50 was under 100 nM.

Regarding `CCN1CCN(c2ncc(-c3cc(C)cc(Nc4nccc(C(F)(F)F)n4)c3)cn2)CC1` [Example 2.55, N-{3-[2-(4-ethylpiperazin-1-yl)pyrimidin-5-yl]-5-methylphenyl}-4-{trifluoromethyl)pyrimidin-2-amine], the IC50 is under 100 nM.

Consider `Cc1cc(Nc2nccc(C(F)(F)F)n2)cc(-c2cnc(N3CCCC[C@H]3C(=O)O)nc2)c1` [Example 2.56, (2S)-1-[5-(3-methyl-5-{[4-(trifluoromethyl)pyrimidin-2-yl]amino}phenyl)pyrimidin-2-yl]piperidine-2-carboxylic acid], for which the IC50 was under 100 nM.
